Changes are numbered by the printed parent chain.
Experiments:
Type in all cases: cell-based
AR [1] = molecular target: T1, AR (Homo sapiens, UniProt P10275); experiment: Reporter gene assay, AR transcriptional (MMTV-Luc) in CV1 cells; details: pcDNA-AR + MMTV-Luc, 0.1 nM R1881 plus test compound, 24 hrs, read-out: B1 = AR transcriptional IC50 (μM) in CV1 cells
T1 construct: expressed in transfected cells; host or cells: CV1 cells
T1 sequence (P10275 1-920): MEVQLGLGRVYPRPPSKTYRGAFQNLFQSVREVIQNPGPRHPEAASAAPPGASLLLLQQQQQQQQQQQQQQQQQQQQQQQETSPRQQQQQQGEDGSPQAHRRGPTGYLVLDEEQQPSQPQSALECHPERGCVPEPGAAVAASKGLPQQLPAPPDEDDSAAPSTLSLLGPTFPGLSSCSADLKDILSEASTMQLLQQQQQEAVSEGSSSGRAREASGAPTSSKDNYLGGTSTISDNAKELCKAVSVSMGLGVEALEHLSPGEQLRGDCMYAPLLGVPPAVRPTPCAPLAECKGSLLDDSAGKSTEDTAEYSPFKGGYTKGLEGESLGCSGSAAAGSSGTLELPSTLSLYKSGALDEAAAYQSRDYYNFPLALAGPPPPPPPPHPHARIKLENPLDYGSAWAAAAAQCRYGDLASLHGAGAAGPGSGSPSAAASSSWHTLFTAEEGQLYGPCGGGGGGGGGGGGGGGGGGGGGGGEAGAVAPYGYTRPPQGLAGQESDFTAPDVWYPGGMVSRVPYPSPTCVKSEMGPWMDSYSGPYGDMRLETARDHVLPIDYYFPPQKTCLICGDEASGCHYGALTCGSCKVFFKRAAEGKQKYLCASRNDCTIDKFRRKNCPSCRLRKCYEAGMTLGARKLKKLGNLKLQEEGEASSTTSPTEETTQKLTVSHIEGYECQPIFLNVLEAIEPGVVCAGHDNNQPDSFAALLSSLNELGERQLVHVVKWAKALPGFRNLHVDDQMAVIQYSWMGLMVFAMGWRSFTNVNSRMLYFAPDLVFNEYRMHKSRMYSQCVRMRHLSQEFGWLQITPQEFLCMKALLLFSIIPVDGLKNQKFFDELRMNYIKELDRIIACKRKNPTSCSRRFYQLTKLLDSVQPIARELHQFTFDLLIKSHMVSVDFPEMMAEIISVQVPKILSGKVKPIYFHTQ
In short: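 CV1 cells transiently co-transfected with human AR, MMTV-Luc reporter and Renilla-Luc (transfection efficiency and toxicity read-out), then stimulated 24 h with 0.1 nM R1881 plus increasing test compound concentrations. Firefly and Renilla luciferase quantified by dual-luciferase assay; IC50 derived from concentration-response.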

AR [2] = molecular target: T2, AR (Homo sapiens, UniProt P10275, T878A); experiment: In Cell Western AR degradation assay in LNCaP cells; details: 18 hrs, greater than 50% degradation at 10 μM (method says 20 μM)
T2 construct: endogenous in cells; host or cells: LNCaP cells
T2 sequence (P10275 1-920 T878A): T1 sequence (P10275 1-920) with T878A
In short: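 After 48 h plating in RPMI with 8% CFS, LNCaP cells were exposed to 20 μM test compound for 18 h, fixed with 3.7% formaldehyde and permeabilized. AR was detected with anti-AR N20 antibody and an infrared secondary, imaged by LI-COR Odyssey and normalized to DRAQ5 DNA stain.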

CV1 cells = experiment: Toxicity of test compound in the CV1 reporter gene assay (Renilla-Luc)

SMILES | IC50 (AR [1]) [µM] | B9 = AR degradation in LNCaP cells (In-Cell Western) (AR [2]) | B2 = % Toxicity of test compound (20 μM) (CV1 cells) [%] | B3 = % Toxicity of test compound (60 μM) (CV1 cells) [%]
CC1CC(=O)C2=C(C1)Nc1ccc3ccccc3c1C2c1ccc(F)cc1 (stereo not drawn) [Compound A4] | 2.6 | Degrader (Compounds that degrade AR (greater than 50% degradation at 10 μM) are indicated) | 0 | 51
O=C1CCCC2=C1C(c1ccc([N+](=O)[O-])cc1)c1c(ccc3ccccc13)N2 (stereo not drawn) [Compound A1, 12-(4-nitrophenyl)-8,9,10,12-tetrahydrobenzo[a]acridin-11(7H)-one] | 4.4 | Degrader (Compounds that degrade AR (greater than 50% degradation at 10 μM) are indicated) | 32 | 87
O=C1CCCC2=C1Nc1ccc3ccccc3c1C2c1ccc([N+](=O)[O-])cc1 (stereo not drawn) [Compound A10] | 5.7 | Degrader (Compounds that degrade AR (greater than 50% degradation at 10 μM) are indicated) | 17 | 88

Source: patent US20180303807A1, “ANDROGEN RECEPTOR LIGANDS” (DUKE UNIVERSITY, priority 2015, published 2018)
